# Measured values taken from patent publication US20230087118A1, “IMIDAZO[1,2-a][sequence] DERIVATIVES AND THEIR USE IN THE TREATMENT OF DISEASE” (priority 2019, published 2023).
# Structures can show the parent of a compound that is named as a salt.
# Molecular target: T1, IRAK4 (Homo sapiens, UniProt Q9NWZ3)
# T1 sequence (Q9NWZ3 1-460): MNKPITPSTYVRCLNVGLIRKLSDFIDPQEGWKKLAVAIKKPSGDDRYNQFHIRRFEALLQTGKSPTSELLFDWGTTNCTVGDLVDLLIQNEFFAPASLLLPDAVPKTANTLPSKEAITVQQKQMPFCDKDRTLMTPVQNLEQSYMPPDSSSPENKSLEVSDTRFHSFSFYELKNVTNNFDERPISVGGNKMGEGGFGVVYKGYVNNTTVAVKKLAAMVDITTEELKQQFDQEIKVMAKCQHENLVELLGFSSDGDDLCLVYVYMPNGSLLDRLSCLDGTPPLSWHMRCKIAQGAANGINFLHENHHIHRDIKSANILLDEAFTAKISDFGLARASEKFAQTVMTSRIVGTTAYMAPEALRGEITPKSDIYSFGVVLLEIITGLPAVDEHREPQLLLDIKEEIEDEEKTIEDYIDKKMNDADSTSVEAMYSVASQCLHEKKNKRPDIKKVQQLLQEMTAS
# Experiment: biochemical
# Settings: not given
row,SMILES,IC50 [µM]
1,"CC(C)Oc1nc(C(=O)Nc2cccc(C(F)F)n2)cn2cc(C34COC(CF)(C3)C4)nc12 [Example 338, N-(6-(difluoromethyl)pyridin-2-yl)-2-(1-(fluoromethyl)-2-oxabicyclo[2.1.1]hexan-4-yl)-8-isopropoxyimidazo[1,2-a]pyrazine-6-carboxamide]",0.0105
2,"CC12CC(c3cn4cc(C(=O)Nc5cnn6cccnc56)nc(OC5CCC5)c4n3)(CO1)C2 [Example 349, 8-Cyclobutoxy-2-(1-methyl-2-oxabicyclo[2.1.1]hexan-4-yl)-N-(pyrazolo[1,5-a]pyrimidin-3-yl)imidazo[1,2-a]pyrazine-6-carboxamide]",0.0053
3,CC(C)Oc1cc2nc(C34CCC(C)(C3)OC4)cn2cc1C(=O)Nc1cnn2c1OCCC2 (centres unmarked) [Example 250],0.0013
4,COc1cc2nc(C3CCOCC3)cn2cc1C(=O)Nc1cccnc1OCC(F)F [Example 196],0.0091
5,"CC(C)Oc1nc2nc(C34CCC(C)(CC3)OC4)cn2cc1C(=O)Nc1cc(F)n(C)n1 [Example 382, N-(5-fluoro-1-methyl-1H-pyrazol-3-yl)-7-isopropoxy-2-(1-methyl-2-oxabicyclo[2.2.2]octan-4-yl)imidazo[1,2-a]pyrimidine-6-carboxamide]",0.0046
6,"CC(C)Oc1cc2nc(C34CCC(C)(CC3)OC4)cn2cc1C(=O)Nc1cnn2cccnc12 [Example 572, 7-Isopropoxy-2-(1-methyl-2-oxabicyclo[2.2.2]octan-4-yl)-N-(pyrazolo[1,5-a]pyrimidin-3-yl)imidazo[1,2-a]pyridine-6-carboxamide]",0.0004
7,CC(C)Oc1c(C(=O)Nc2cccc(C(F)F)n2)cn2cc(C34COC(C)(C3)C4)nc2c1F [Example 217],0.0017
8,"CCOc1nc(C(=O)Nc2cccnc2OC)cn2cc([C@@]34CC[C@@](C)(C3)OC4)nc12 (single isomer, unassigned) [Example 605]",0.0004
9,CC(C)Oc1cc2nc(C34COC(C)(C3)C4)cn2cc1C(=O)Nc1ccccn1 [Example 219],0.0069
10,"CC(C)Oc1cc2nc(C34COC(C)(C3)C4)cn2cc1C(=O)Nc1ccnc(C(F)F)c1 [Example 258, N-(2-(difluoromethyl)pyridin-4-yl)-7-isopropoxy-2-(1-methyl-2-oxabicyclo[2.1.1]hexan-4-yl)imidazo[1,2-a]pyridine-6-carboxamide]",0.0596
11,"CC(C)Oc1cc2nc(C3COCCO3)cn2cc1C(=O)Nc1cnn2cccnc12 (centres unmarked) [Example 331, 2-(1,4-Dioxan-2-yl)-7-isopropoxy-N-(pyrazolo[1,5-a]pyrimidin-3-yl)imidazo[1,2-a]pyridine-6-carboxamide]",0.002
12,"CC(C)Oc1cc2nc([C@@]34CC[C@@](C)(C3)OC4)cn2cc1C(=O)Nc1cccc(C(F)F)n1 (single isomer, unassigned) [Example 609]",0.0001
13,"CC(C)Oc1cc2nc([C@]34CC[C@](C)(C3)OC4)cn2cc1C(=O)Nc1cccn(C)c1=O (single isomer, unassigned) [Example 621]",0.0014
14,"Cn1ccc(NC(=O)c2cn3cc([C@]45CC[C@](C)(C4)OC5)nc3cc2OC2CCCC2)n1 (single isomer, unassigned) [Example 633]",0.0016
15,"COc1ncccc1NC(=O)c1cn2cc(C34COC(CF)(C3)C4)nc2c(OC(C)C)n1 [Example 339, 2-(1-(Fluoromethyl)-2-oxabicyclo[2.1.1]hexan-4-yl)-8-isopropoxy-N-(2-methoxypyridin-3-yl)imidazo[1,2-a]pyrazine-6-carboxamide]",0.0008
16,COc1nc(C(=O)Nc2cccc3c2CCC3)cn2cc(C3CCOCC3)nc12 [Example 210],0.302
17,"CC(C)Oc1c(C(=O)Nc2cccc(-c3cnn(C)c3)n2)cn2cc(C34COC(C)(C3)C4)nc2c1F [Example 393, 8-Fluoro-7-isopropoxy-N-(6-(1-methyl-1H-pyrazol-4-yl)pyridin-2-yl)-2-(1-methyl-2-oxabicyclo[2.1.1]hexan-4-yl)imidazo[1,2-a]pyridine-6-carboxamide]",0.0001
18,"Cn1ccc(NC(=O)c2cn3cc(C45CCC(C)(C4)OC5)nc3cc2OC2CCC2)n1 (centres unmarked) [Example 561, 7-Cyclobutoxy-N-(1-methyl-1H-pyrazol-3-yl)-2-(1-methyl-2-oxabicyclo[2.2.1]heptan-4-yl)imidazo[1,2-a]pyridine-6-carboxamide]",0.0014
19,"CCOc1nc(C(=O)Nc2cc(F)cnc2OC)cn2cc([C@@H]3CCCOC3)nc12 (single isomer, unassigned) [Example 594]",0.0056
20,"COc1ncccc1NC(=O)c1cn2cc(C34COC(C)(C3)C4)nc2cc1OC1CCC1 [Example 526, 7-Cyclobutoxy-N-(2-methoxypyridin-3-yl)-2-(1-methyl-2-oxa-bicyclo[2.1.1]hexan-4-yl)imidazo[1,2-a]pyridine-6-carboxamide]",0.0003
21,Cn1ccc(NC(=O)c2cn3cc(C45COC(C)(C4)C5)nc3cc2OC2CC3(CC3)C2)n1 [Example 550],0.002
22,"CC(C)Oc1cc2nc(C34CCC(C)(C3)OC4)cn2cc1C(=O)Nc1nccs1 (centres unmarked) [Example 512, 7-Isopropoxy-2-(1-methyl-2-oxabicyclo[2.2.1]heptan-4-yl)-N-(thiazol-2-yl)imidazo[1,2-a]pyridine-6-carboxamide]",0.009
23,"CCOc1nc(C(=O)Nc2cc(F)cn(C)c2=O)cn2cc(C3CCCOC3)nc12 (centres unmarked) [Example 272, 8-Ethoxy-N-(5-fluoro-1-methyl-2-oxo-1,2-dihydropyridin-3-yl)-2-(tetrahydro-2H-pyran-3-yl)imidazo[1,2-a]pyrazine-6-carboxamide]",0.0098
24,"CC1(C)CC(Oc2cc3nc(C4CC4)cn3cc2C(=O)Nc2cccc(C(F)F)n2)C1 [Example 472, 2-Cyclopropyl-N-(6-(difluoromethyl)pyridin-2-yl)-7-(3,3-dimethylcyclobutoxy)imidazo[1,2-a]pyridine-6-carboxamide]",0.0064
25,"CC(C)Oc1cc2nc(C3CC3)cn2cc1C(=O)Nc1cccc(C#N)n1 [Example 638, N-(6-cyanopyridin-2-yl)-2-cyclopropyl-7-isopropoxyimidazo[1,2-a]pyridine-6-carboxamide]",0.0045
26,CCOc1nc(C(=O)Nc2cccnc2OC)cn2cc(C3CCCOC3)nc12 (centres unmarked) [Example 224],0.0086
27,"CC(C)Oc1cc2nc(C3CC3)cn2cc1C(=O)Nc1cccc(CC#N)n1 [Example 519, N-(6-(cyanomethyl)pyridin-2-yl)-2-cyclopropyl-7-isopropoxy-imidazo[1,2-a]pyridine-6-carboxamide]",0.003
28,CC(C)Oc1nc2nc(C34CCC(C)(CC3)OC4)cn2cc1C(=O)Nc1cnn2cccnc12 [Example 431],0.0008
29,"Cc1cnc2c(NC(=O)c3cn4cc(C56COC(CF)(C5)C6)nc4c(F)c3OC(C)C)cnn2c1 [Example 270, 8-Fluoro-2-(1-(fluoromethyl)-2-oxabicyclo[2.1.1]hexan-4-yl)-7-isopropoxy-N-(6-methylpyrazolo[1,5-a]pyrimidin-3-yl)imidazo[1,2-a]pyridine-6-carboxamide]",0.0023
30,"CC12CC(c3cn4cc(C(=O)Nc5cccn(C(F)F)c5=O)c(OC5CCC5(C)C)cc4n3)(CO1)C2 (centres unmarked) [Example 439, N-(1-(difluoromethyl)-2-oxo-1,2-dihydropyridin-3-yl)-7-(2,2-dimethylcyclobutoxy)-2-(1-methyl-2-oxabicyclo[2.1.1]hexan-4-yl)imidazo[1,2-a]pyridine-6-carboxamide]",0.0028

# Same assay, conditions: IRAK4 Biochemical Assay (1 mM ATP, 2 h) IC50 (μM), 1 mM ATP, 2 h, 100 pM IRAK4
row,SMILES,IC50 [µM]
1,"CC(C)Oc1nc2nc(C34COC(C)(C3)C4)cn2cc1C(=O)Nc1ccn(C2CCC2)n1 [Example 364, N-(1-cyclobutyl-1H-pyrazol-3-yl)-7-isopropoxy-2-(1-methyl-2-oxabicyclo[2.1.1]hexan-4-yl)imidazo[1,2-a]pyrimidine-6-carboxamide trifluoroacetate]",0.0057
2,"CC(C)Oc1nc2nc(C34COC(C)(C3)C4)cn2cc1C(=O)Nc1cccc(C(C)(F)F)n1 [Example 356, N-(6-(1,1-difluoroethyl)pyridin-2-yl)-7-isopropoxy-2-(1-methyl-2-oxabicyclo[2.1.1]hexan-4-yl)imidazo[1,2-a]pyrimidine-6-carboxamide trifluoroacetate]",0.0011
3,COc1nc(C(=O)Nc2ccccn2)cn2cc(C3CCOCC3)nc12 [Example 78],0.0475
4,"CC1(C)CC(Oc2cc3nc(C45COC(C)(C4)C5)cn3cc2C(=O)Nc2cccn(C(F)F)c2=O)CO1 (centres unmarked) [Example 447, N-(1-(difluoromethyl)-2-oxo-1,2-dihydropyridin-3-yl)-7-((5,5-dimethyltetrahydrofuran-3-yl)oxy)-2-(1-methyl-2-oxabicyclo[2.1.1]hexan-4-yl)imidazo[1,2-a]pyridine-6-carboxamide]",0.0014
5,"CC(C)Oc1cc2nc(C34COC(C)(C3)C4)cn2cc1C(=O)Nc1ccn(C)n1 [Example 297, 7-Isopropoxy-N-(1-methyl-1H-pyrazol-3-yl)-2-(1-methyl-2-oxabicyclo[2.1.1]hexan-4-yl)imidazo[1,2-a]pyridine-6-carboxamide trifluoroacetate]",0.0048
6,COc1cccc(NC(=O)c2cn3cc(C45CC(C)(C4)OC54COC4)nc3cc2OC)n1 [Example 28],0.0969
7,COc1cccc(NC(=O)c2cn3cc(C4CCOCC4)nc3c(OC)n2)n1 [Example 77],0.074
8,"CCc1cccc(NC(=O)c2cn3cc(C45COC(CF)(C4)C5)nc3cc2OC)n1 [Example 58, N-(6-ethylpyridin-2-yl)-2-(1-(fluoromethyl)-2-oxabicyclo[2.1.1]hexan-4-yl)-7-methoxyimidazo[1,2-a]pyridine-6-carboxamide trifluoroacetate]",0.0105
